Measurements as given in ChEMBL document CHEMBL1151766, “Engineering stabilized vascular endothelial growth factor-A antagonists: synthesis, structural characterization, and bioactivity of grafted analogues of cyclotides” (J Med Chem, 2008).

Legend:
BaF3 = experiment: Cytotoxicity against VEGF-A induced mouse BAF3-VEGF-R2 cells at >10 uM; format: functional, cell-based
[1] = Toxicity in human erythrocytes assessed as hemolytic activity at 50 uM; format: cell-based, Erythrocyte; conditions: read-out: Activity

Row | SMILES | Activity (BaF3) | hemolysis at 50 µM [1]
1 | CC(C)C[C@@H]1NC(=O)CNC(=O)[C@H](CC(N)=O)NC(=O)[C@H](CCCNC(=N)N)NC(=O)[C@H]([C@@H](C)O)NC(=O)[C@H](CS)NC(=O)[C@H](C(C)C)NC(=O)[C@@H]2CCCN2C(=O)[C@H](CCC(=O)O)NC(=O)[C@H](CO)NC(=O)[C@H](CS)NC(=O)[C@H]([C@@H](C)O)NC(=O)[C@H](CS)NC(=O)CNC(=O)[C@@H]2CCCN2C(=O)[C@H]([C@@H](C)O)NC(=O)[C@H](CC(N)=O)NC(=O)[C@H](CS)NC(=O)[C@H]([C@@H](C)O)NC(=O)CNC(=O)CNC(=O)[C@H](C(C)C)NC(=O)[C@H](CS)NC(=O)[C@H]([C@@H](C)O)NC(=O)[C@H](CCC(=O)O)NC(=O)CNC(=O)[C@H](CS)NC(=O)[C@H](C(C)C)NC(=O)[C@@H]2CCCN2C1=O | Toxic | –
2 | CC(C)C[C@@H]1NC(=O)CNC(=O)[C@H](CC(N)=O)NC(=O)[C@H](CCCNC(=N)N)NC(=O)[C@H]([C@@H](C)O)NC(=O)[C@@H]2CSSC[C@@H]3NC(=O)[C@H]([C@@H](C)O)NC(=O)CNC(=O)CNC(=O)[C@H](C(C)C)NC(=O)[C@@H]4CSSC[C@H](NC(=O)[C@H]([C@@H](C)O)NC(=O)[C@H](CSSC[C@H](NC(=O)[C@H](C(C)C)NC(=O)[C@@H]5CCCN5C1=O)C(=O)NCC(=O)N[C@@H](CCC(=O)O)C(=O)N[C@@H]([C@@H](C)O)C(=O)N4)NC(=O)CNC(=O)[C@@H]1CCCN1C(=O)[C@H]([C@@H](C)O)NC(=O)[C@H](CC(N)=O)NC3=O)C(=O)N[C@@H](CO)C(=O)N[C@@H](Cc1c[nH]c3ccccc13)C(=O)N1CCC[C@H]1C(=O)N[C@@H](C(C)C)C(=O)N2 [KALATA B1] | – | 50%
